Measured values: publication PMC6844396, “Design, synthesis and biological evaluation of novel 1H-1,2,4-triazole, benzothiazole and indazole-based derivatives as potent FGFR1 inhibitors viafragment-based virtual screening” (Journal of Enzyme Inhibition and Medicinal Chemistry, 2019)

Legend:
Flt-1 = Flt-1 (Homo sapiens, UniProt P17948); experiment: ELISA kinase assay, Flt-1; assay type: biochemical; conditions: kinase selectivity panel
Experimental: (§1) The kinase profiling of 9 u was conducted using Elisa kinase assay and the Eurofins Kinase Profiler Selectivity Testing Service.
(§2) Elisa kinase assay. The effects of the indicated compounds on the activities of receptor tyrosine kinases were determined using enzyme-linked immunosorbent assays (ELISAs) with purified recombinant proteins. Briefly, 20 μg/mL poly (Glu,Tyr)4:1 (Sigma, St Louis, MO, USA) was pre-coated in 96-well plates as a substrate. A 50 μL aliquot of 10 μmol/L ATP solution diluted in kinase reaction buffer (50 mmol/L HEPES [pH 7.4], 50 mmol/L MgCl2, 0.5 mmol/L MnCl2, 0.2 mmol/L Na3VO4, and 1 mmol/L DTT) was added to each well; 1 μL of different compounds with indicated concentration diluted in 1% DMSO (v/v) (Sigma, St Louis, MO, USA) were then added to each reaction well. DMSO (1%, v/v) was used as the negative control. The kinase reaction was initiated by the addition of purified tyrosine kinase proteins (FGFR1, FGFR2, FGFR3, FGFR4, ALK, Bcr-Abl, EPH-A2, Flt-1, RET, c-Src, IGF1R, c-Met, EGFR, ErbB2) diluted in 49 μL of kinase reaction buffer solution. […] The reaction was terminated by the addition of 50 μL of 2 mol/l H2SO4 as the colour changed, and the plate was analysed using a multi-well spectrophotometer (SpectraMAX 190, Molecular Devices, Sunnyvale, CA, USA) at 490 nm. […] The IC50 values were calculated from the inhibition curves in two separate experiments.

FGFR1 = FGFR1 (Homo sapiens, UniProt P11362); experiment: ELISA kinase assay, FGFR1; assay type: biochemical; conditions: for IC50: ELISA, average values from two separate experiments
Chain of FGFR1 (P11362 22-822): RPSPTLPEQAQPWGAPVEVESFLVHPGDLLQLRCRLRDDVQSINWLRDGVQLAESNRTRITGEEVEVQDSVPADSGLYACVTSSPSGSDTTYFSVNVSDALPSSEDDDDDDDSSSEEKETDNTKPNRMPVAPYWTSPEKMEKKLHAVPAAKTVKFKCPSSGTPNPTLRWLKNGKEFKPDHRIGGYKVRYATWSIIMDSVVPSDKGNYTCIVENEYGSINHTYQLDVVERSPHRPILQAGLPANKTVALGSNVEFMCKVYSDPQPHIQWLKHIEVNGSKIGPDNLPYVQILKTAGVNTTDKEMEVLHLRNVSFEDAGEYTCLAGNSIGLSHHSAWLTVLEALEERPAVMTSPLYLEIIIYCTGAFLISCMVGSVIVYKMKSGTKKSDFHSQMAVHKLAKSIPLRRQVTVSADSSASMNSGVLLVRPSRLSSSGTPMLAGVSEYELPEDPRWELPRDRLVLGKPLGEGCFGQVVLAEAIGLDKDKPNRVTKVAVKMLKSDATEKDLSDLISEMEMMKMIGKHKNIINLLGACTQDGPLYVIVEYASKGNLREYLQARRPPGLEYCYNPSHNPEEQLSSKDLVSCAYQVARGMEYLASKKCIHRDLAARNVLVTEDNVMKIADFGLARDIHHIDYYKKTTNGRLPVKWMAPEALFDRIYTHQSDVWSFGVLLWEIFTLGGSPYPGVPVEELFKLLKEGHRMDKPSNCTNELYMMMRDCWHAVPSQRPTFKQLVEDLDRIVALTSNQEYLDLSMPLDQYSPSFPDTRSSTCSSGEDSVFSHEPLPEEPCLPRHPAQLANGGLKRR
Experimental: Elisa kinase assay. The effects of the indicated compounds on the activities of receptor tyrosine kinases were determined using enzyme-linked immunosorbent assays (ELISAs) with purified recombinant proteins. Briefly, 20 μg/mL poly (Glu,Tyr)4:1 (Sigma, St Louis, MO, USA) was pre-coated in 96-well plates as a substrate. A 50 μL aliquot of 10 μmol/L ATP solution diluted in kinase reaction buffer (50 mmol/L HEPES [pH 7.4], 50 mmol/L MgCl2, 0.5 mmol/L MnCl2, 0.2 mmol/L Na3VO4, and 1 mmol/L DTT) was added to each well; 1 μL of different compounds with indicated concentration diluted in 1% DMSO (v/v) (Sigma, St Louis, MO, USA) were then added to each reaction well. DMSO (1%, v/v) was used as the negative control. The kinase reaction was initiated by the addition of purified tyrosine kinase proteins (FGFR1, FGFR2, FGFR3, FGFR4, ALK, Bcr-Abl, EPH-A2, Flt-1, RET, c-Src, IGF1R, c-Met, EGFR, ErbB2) diluted in 49 μL of kinase reaction buffer solution. After incubation for 60 min at 37 °C, the plate was washed three times with phosphate-buffered saline (PBS) containing 0.1% Tween 20 (T-PBS). Anti-phosphotyrosine (PY99) antibody (100 μL; 1:500, diluted in 5 mg/mL BSA T-PBS) was then added. After a 30 min incubation at 37 °C, the plate was washed three times, and 100 μL horseradish peroxidase-conjugated goat anti-mouse IgG (1:2000, diluted in 5 mg/mL BSA T-PBS) was added. The plate was then incubated at 37 °C for 30 min and washed 3 times. A 100 μL aliquot of a solution containing 0.03% H2O2 and 2 mg/mL o-phenylenediamine in 0.1 mol/l citrate buffer (pH 5.5) was added. The reaction was terminated by the addition of 50 μL of 2 mol/l H2SO4 as the colour changed, and the plate was analysed using a multi-well spectrophotometer (SpectraMAX 190, Molecular Devices, Sunnyvale, CA, USA) at 490 nm. The inhibition rate (%) was calculated using the following equation: [1-(A490/A490 control)] × 100%. The IC50 values were calculated from the inhibition curves in two separate experiments.

RET = RET (Homo sapiens, UniProt P07949); experiment: ELISA kinase assay, RET; assay type: biochemical; conditions: kinase selectivity panel
Experimental: as §1, §2

EPH-A2 = EPH-A2 (Homo sapiens, UniProt P29317); experiment: ELISA kinase assay, EPH-A2; assay type: biochemical; conditions: kinase selectivity panel
Chain of EPH-A2 (P29317 24-976, species assumed): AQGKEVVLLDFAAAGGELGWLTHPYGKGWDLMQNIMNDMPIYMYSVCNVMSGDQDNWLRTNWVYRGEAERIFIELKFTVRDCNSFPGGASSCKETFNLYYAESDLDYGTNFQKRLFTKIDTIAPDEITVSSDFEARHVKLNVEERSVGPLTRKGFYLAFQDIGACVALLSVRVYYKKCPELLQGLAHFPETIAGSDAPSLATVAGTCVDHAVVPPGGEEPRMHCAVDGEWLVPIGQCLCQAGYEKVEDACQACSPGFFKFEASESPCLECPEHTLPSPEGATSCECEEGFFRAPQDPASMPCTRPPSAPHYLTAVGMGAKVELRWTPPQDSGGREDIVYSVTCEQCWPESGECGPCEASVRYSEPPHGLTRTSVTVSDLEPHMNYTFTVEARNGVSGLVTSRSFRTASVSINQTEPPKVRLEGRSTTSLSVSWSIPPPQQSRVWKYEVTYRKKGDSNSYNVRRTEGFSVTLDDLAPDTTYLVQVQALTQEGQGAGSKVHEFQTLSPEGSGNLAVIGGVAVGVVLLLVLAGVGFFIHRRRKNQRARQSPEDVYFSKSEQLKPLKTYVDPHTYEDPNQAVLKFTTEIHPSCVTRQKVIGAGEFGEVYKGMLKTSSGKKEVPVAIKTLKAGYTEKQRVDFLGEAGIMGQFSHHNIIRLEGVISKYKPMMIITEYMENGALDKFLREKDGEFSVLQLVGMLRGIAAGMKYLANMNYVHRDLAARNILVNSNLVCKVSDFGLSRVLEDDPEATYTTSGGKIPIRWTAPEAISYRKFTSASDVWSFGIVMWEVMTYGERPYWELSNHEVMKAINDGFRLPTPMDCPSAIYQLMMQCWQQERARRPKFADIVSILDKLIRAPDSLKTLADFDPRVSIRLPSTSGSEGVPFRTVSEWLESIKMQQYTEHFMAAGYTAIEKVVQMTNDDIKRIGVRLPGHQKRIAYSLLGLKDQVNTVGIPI
Experimental: as §1, §2

c-Met = c-Met (Homo sapiens, UniProt P08581); experiment: ELISA kinase assay, c-Met; assay type: biochemical; conditions: kinase selectivity panel
Chain of c-Met (P08581 25-1390): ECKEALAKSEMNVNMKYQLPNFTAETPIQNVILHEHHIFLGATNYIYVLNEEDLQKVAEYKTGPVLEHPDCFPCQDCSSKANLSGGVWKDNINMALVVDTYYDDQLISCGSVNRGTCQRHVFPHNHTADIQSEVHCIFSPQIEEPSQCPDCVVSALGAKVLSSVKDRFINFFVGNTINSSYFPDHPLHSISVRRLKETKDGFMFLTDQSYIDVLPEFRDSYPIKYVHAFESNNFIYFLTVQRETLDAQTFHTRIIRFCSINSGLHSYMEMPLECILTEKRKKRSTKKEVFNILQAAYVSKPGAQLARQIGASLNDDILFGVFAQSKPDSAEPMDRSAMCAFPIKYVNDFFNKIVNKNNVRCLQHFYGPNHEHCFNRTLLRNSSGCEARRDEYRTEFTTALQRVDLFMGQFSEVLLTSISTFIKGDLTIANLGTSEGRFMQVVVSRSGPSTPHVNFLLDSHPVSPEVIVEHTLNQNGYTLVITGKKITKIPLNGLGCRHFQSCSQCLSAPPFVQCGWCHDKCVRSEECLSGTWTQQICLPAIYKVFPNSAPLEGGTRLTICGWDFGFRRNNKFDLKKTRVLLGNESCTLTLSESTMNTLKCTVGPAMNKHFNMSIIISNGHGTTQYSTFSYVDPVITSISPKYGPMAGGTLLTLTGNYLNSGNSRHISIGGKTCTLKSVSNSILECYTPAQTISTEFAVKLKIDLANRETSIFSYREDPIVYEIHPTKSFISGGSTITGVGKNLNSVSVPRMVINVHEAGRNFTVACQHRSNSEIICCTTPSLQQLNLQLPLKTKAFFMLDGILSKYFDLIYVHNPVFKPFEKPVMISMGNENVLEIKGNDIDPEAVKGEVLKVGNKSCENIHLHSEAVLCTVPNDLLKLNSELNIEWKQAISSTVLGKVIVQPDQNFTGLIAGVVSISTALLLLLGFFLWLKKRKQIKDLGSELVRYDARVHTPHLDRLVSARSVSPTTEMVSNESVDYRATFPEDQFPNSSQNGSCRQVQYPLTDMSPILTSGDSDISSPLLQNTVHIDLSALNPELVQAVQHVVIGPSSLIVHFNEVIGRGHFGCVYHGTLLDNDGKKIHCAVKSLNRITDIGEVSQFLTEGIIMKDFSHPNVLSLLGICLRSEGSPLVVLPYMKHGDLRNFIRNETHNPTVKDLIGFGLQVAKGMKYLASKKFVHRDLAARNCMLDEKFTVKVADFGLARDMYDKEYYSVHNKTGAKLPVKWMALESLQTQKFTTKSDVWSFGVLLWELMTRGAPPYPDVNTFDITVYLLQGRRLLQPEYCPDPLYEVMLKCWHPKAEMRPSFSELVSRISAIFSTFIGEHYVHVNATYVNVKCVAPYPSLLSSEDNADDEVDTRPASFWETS
Experimental: as §1, §2

Bcr-Abl = Bcr-Abl (Homo sapiens, UniProt P00519); experiment: ELISA kinase assay, Bcr-Abl; assay type: biochemical; conditions: kinase selectivity panel
Experimental: as §1, §2

ErbB2 = ErbB2 (Homo sapiens, UniProt P04626); experiment: ELISA kinase assay, ErbB2; assay type: biochemical; conditions: kinase selectivity panel
Experimental: as §1, §2

EGFR = EGFR (Homo sapiens, UniProt P00533); experiment: ELISA kinase assay, EGFR; assay type: biochemical; conditions: kinase selectivity panel
Experimental: as §1, §2

ALK = ALK (Homo sapiens, UniProt Q9UM73); experiment: ELISA kinase assay, ALK; assay type: biochemical; conditions: kinase selectivity panel
Experimental: as §1, §2

FGFR3 = FGFR3 (Homo sapiens, UniProt P22607); experiment: ELISA kinase assay, FGFR3; assay type: biochemical; conditions: kinase selectivity panel
Experimental: as §1, §2

IGF1R = IGF1R (Homo sapiens, UniProt P08069); experiment: ELISA kinase assay, IGF1R; assay type: biochemical; conditions: kinase selectivity panel
Experimental: as §1, §2

SNU-16 cell = experiment: Cell proliferation assay (CCK-8 or MTT), SNU-16; assay type: cell-based, Human; conditions: Homo sapiens, SNU-16 is FGFR2-amplified cell type, 72 h
Experimental: Human gastric cancer cell line SNU-16 was purchased from American Type Culture Collection (ATCC, Manssas, VA, USA). All the cell lines were routinely maintained in complete medium according to the suppliers’ recommendations.
Cells were seeded in 96-well tissue culture plates. On the day when seeding, the cells were exposed to various concentrations of compounds and further cultured for 72 h at 37 °C. Finally, cell proliferation was determined using Cell Counting Kit (CCK-8) or the thiazolyl blue tetrazolium bromide (MTT, from Sigma-Aldrich, St. Louis, MO, USA) assay. The IC50 values were calculated by concentration–response curve fitting using a SoftMax pro-based four-parameter method.

FGFR2 = FGFR2 (Homo sapiens, UniProt P21802); experiment: ELISA kinase assay, FGFR2; assay type: biochemical; conditions: kinase selectivity panel
Chain of FGFR2 (P21802 22-821): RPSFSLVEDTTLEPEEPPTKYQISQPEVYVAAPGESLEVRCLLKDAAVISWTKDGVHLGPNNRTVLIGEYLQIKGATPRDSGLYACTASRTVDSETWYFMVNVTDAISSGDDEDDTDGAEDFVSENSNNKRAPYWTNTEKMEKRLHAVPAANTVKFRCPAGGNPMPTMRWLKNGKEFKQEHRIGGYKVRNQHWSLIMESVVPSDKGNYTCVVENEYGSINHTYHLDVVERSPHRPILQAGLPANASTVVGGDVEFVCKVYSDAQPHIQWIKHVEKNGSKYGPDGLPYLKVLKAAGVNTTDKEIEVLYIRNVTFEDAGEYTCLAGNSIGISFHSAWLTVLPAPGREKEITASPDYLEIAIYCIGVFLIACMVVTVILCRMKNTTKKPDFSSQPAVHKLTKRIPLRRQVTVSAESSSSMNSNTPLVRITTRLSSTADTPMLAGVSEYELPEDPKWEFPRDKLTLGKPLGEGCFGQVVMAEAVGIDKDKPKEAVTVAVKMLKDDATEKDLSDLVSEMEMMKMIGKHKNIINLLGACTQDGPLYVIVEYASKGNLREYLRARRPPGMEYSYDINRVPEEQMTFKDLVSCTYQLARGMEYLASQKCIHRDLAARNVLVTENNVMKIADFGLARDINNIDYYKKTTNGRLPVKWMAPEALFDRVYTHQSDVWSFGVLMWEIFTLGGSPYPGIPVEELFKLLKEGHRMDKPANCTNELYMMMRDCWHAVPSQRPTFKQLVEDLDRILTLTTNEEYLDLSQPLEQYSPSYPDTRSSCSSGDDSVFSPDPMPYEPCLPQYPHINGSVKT
Experimental: DMSO (1%, v/v) was used as the negative control. […] Anti-phosphotyrosine (PY99) antibody (100 μL; 1:500, diluted in 5 mg/mL BSA T-PBS) was then added. […] The IC50 values were calculated from the inhibition curves in two separate experiments.

c-Src = c-Src (Homo sapiens, UniProt P12931); experiment: ELISA kinase assay, c-Src; assay type: biochemical; conditions: kinase selectivity panel
Experimental: as §1, §2

FGFR4 = FGFR4 (Homo sapiens, UniProt P22455); experiment: ELISA kinase assay, FGFR4; assay type: biochemical; conditions: kinase selectivity panel
Chain of FGFR4 (P22455 22-802): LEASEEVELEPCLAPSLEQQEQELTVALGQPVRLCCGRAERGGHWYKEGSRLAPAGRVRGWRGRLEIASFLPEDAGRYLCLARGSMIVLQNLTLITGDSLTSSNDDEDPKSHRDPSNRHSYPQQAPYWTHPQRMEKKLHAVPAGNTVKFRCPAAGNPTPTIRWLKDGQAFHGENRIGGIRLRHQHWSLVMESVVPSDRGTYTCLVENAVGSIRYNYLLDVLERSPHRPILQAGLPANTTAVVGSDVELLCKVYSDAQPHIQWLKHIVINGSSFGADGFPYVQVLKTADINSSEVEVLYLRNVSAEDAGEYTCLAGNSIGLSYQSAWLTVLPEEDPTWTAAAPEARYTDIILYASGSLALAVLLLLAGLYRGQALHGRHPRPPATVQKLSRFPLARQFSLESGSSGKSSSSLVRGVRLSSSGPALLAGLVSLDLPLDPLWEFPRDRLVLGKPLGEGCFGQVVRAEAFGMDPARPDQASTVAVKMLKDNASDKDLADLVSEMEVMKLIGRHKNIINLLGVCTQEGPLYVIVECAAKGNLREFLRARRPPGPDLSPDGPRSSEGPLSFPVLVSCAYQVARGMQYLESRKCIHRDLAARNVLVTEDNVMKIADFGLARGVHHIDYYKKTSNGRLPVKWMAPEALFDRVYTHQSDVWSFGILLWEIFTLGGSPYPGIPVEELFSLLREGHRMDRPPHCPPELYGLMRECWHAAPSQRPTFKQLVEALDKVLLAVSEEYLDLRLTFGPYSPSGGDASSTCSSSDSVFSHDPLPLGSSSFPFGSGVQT
Experimental: as §1, §2

Row | Structure (SMILES) | melting point [°C] | IC50 (FGFR1) [µM] | IC50 (SNU-16 cell; Table 2) [µM] | IC50 (SNU-16 cell; Table 1) [µM] | other results
1 | COc1cc(F)cc(-c2ccc3c(NC(=O)c4ccc(N5CCC(N(C)C)CC5)cc4)n[nH]c3c2)c1 [9u, 4–(4-(dimethylamino)piperidin-1-yl)-N-(6–(3-fluoro-5-methoxyphenyl)-1H-indazol-3-yl)benzamide] | 223.8 to 227.4 | 0.0033 |  |  | IC50 (Flt-1): > 0.1 µM; enhancement of FGFR1 inhibitory activity (FGFR1; compared with 9o): 1.5 fold; IC50 (RET): > 0.1 µM; IC50 (EPH-A2): > 1 µM; IC50 (c-Met): > 1 µM; IC50 (Bcr-Abl): > 1 µM; IC50 (ErbB2): > 1 µM; IC50 (EGFR): > 1 µM; IC50 (ALK): > 1 µM; IC50 (FGFR3): 0.0122 µM; IC50 (IGF1R): > 1 µM; IC50 (SNU-16 cell; Table 3): 0.468 µM; IC50 (FGFR2): 0.0052 µM; IC50 (c-Src): > 0.1 µM; IC50 (FGFR4): > 1 µM
2 | CCN1CCN(c2ccc(C(=O)Nc3n[nH]c4cc(-c5cccc(OC(C)C)c5)ccc34)cc2)CC1 [9f, 4–(4-ethylpiperazin-1-yl)-N-(6–(3-isopropoxyphenyl)-1H-indazol-3-yl)benzamide] | 227.9 to 231.7 | 0.0098 | 1.5 |  | 
3 | CCN1CCN(c2ccc(C(=O)Nc3n[nH]c4cc(-c5ccn(C)n5)ccc34)cc2)CC1 [9t, 4–(4-ethylpiperazin-1-yl)-N-(6–(1-methyl-1H-pyrazol-3-yl)-1H-indazol-3-yl) benzamide] | 221.6 to 224.2 | > 1 | > 5 |  | 
4 | CCN1CCN(c2ccc(C(=O)Nc3n[nH]c4cc(-c5ccc(Cl)c(Cl)c5)ccc34)cc2)CC1 [9n, N-(6–(3,4-dichlorophenyl)-1H-indazol-3-yl)-4–(4-ethylpiperazin-1-yl)benzamide] | 224.9 to 228 | > 1 | > 5 |  | 
5 | COc1cccc(-c2ccc3c(NC(=O)c4ccc(N5C[C@@H](C)N[C@@H](C)C5)cc4)n[nH]c3c2)c1 [9b, 4-((3R,5S)-3,5-dimethylpiperazin-1-yl)-N-(6–(3-methoxyphenyl)-1H-indazol-3-yl)benzamide] | 224.8 to 227.4 | 0.0207 |  | 1.05 | 

Further lines, with some results ahead:

Row | melting point [°C] | IC50 (FGFR1) [µM] | IC50 (SNU-16 cell; Table 2) [µM] | IC50 (SNU-16 cell; Table 1) [µM] | Structure (SMILES) | other results
6 | 218.1 to 222.5 | > 1 |  | > 5 | CN1CCN(c2ccc(C(=O)Nc3n[nH]c(CCc4ccccc4)n3)cc2)CC1 [18a, 4–(4-methylpiperazin-1-yl)-N-(5-phenethyl-1H-1,2,4-triazol-3-yl)benzamide] | 
7 | 220.9 to 223.3 | > 1 |  | > 5 | COc1cc(CCc2nc(NC(=O)c3ccc(N4CCN(C)CC4)cc3)n[nH]2)cc(OC)c1 [18c, N-(5–(3,5-dimethoxyphenethyl)-1H-1,2,4-triazol-3-yl)-4–(4-methylpiperazin-1-yl)benzamide] | 
8 | 230.5 to 233.2 | > 1 |  | > 5 | COc1cccc(-c2ccc3nc(NC(=O)c4ccc(N5CCN(C)CC5)cc4)sc3c2)c1 [12a, N-(6–(3-methoxyphenyl)benzo[d]thiazol-2-yl)-4–(4-methylpiperazin-1-yl) benzamide] | 
